Patent US4853401A, “Spiro-hydantoins as aldose reductase inhibitors” (priority 1987, dated 1989)

Tests used:
[1] = Acute oral toxicity (LD50); type: in vivo; details: mouse, in vivo, mice, read-out: Lethal dose LD50
Method: The LD 50 was calculated by the method of Litchfield and Wilcoxon (J. Pharmacol. Exp. Ther., 96, 99, 1949) and is expressed in mg/kg. The products were orally administered to mice.
(§1) Behaviour was studied, 2, 4, 6 and 24 hours after treatment. Observation was continued if symptoms persisted at that time. Deaths were recorded during the 14 days after treatment. The results are given in Table II, in which the numbers of the compounds are the same as the numbers given in column 1 of Table I.

[2] = test system: mice; experiment: Effect on behaviour (Irwin method), side effects; type: in vivo
Method: The effect on behaviour was studied by a method derived from that of S. Irwin (Gordon Res. Conf. on Medicinal Chem., 133, 1959). The substances, suspended in 1% tragacanth mucilage, were orally administered via an intra-gastric probe to groups of 5 male mice fasted for 18 hours. The maximum tested dose was 3 000 mg/kg or 1 000 mg/kg, and smaller doses were tested if an effect has been observed.
as §1

[3] = test system: accumulation of sorbitol in the crystalline lenses; experiment: Inhibition of accumulation of sorbitol in crystalline lenses of diabetic rats; type: in vivo, Sprague Dawley rats
Method: 2.1 Inhibition of accumulation of sorbitol in crystalline lenses and nerves of diabetic rats:
The effects of the products according to the invention on the proportion of plasma glucose and the accumulation of sorbitol in the crystalline lenses and sciatic nerves of rats made diabetic by streptozotocin were examined by the method of M. J. Peterson, et al (Metabolism, 28, 456-461 (1979)).
Fasted Sprague Dawley rats were made diabetic by intraperitoneal injection of streptozotocin (75 mg/kg). The product under test was orally administered at a dose of 25 mg/kg after 0, 7 and 24 hours. The rats were sacrificed 27 hours after induction of diabetes. The crystalline lenses and sciatic nerves were taken and preserved at -20° C. until analysed. The crystalline lenses and sciatic nerves were homogenized in water and the proteins were precipitated from ethanol. The precipitate was eliminated by centrifuging and the supernatant liquid was lyophylised. The sorbitol in the sample was determined by the method of B. Bjorkqvist (J. of Chromatograph, 218, 65-71 (1981)), adapted by A. Lenaers et al. (Arch. Intern. Physiol. Bioch., 91, B, 62-63 (1983)).
The sample was dissolved in pyridine containing galactitol as an internal standard. Derivatives were formed therefrom by phenylisocyanate during incubation for 1 hour at 60° C. The reaction was then stopped by adding methanol and the derivatives were separated and determined by HPLC.
The results are expressed as percentage inhibition of the accumulation of sorbitol, compared with the controls.

[4] = test system: mice; experiment: Teratogenic effect on mice; type: in vivo; details: oral doses of 100 mg/kg and 1 000 mg/kg
[5] = test system: sorbitol accumulation in crystalline lenses; experiment: Effect of in vivo doses on sorbitol accumulation in crystalline lenses of diabetic rats; parameters: species or system Sprague Dawley rats
Source text: (§2) 2.2 Effect of "in vivo" doses on sorbitol accumulation in sciatic nerves and crystalline lenses of diabetic rats:
(§3) Estimates were made of the effects of the products on the proportion of plasma glucose and the sorbitol content of the crystalline lenses and sciatic nerves of rats.

[6] = test system: sorbitol accumulation in sciatic nerves; experiment: Effect of in vivo doses on sorbitol accumulation in sciatic nerves of diabetic rats; parameters: species or system Sprague Dawley rats
Source text: as §2, §3

[7] = Effect of in vivo doses on plasma glucose of diabetic rats; parameters: species or system Sprague Dawley rats; details: n = 5, average ± standard deviation
Method: Compound No. 1 (CP 3182 AR) and No. 2 (CP 3192 AR) were evaluated at various doses, using the experimental model described hereinbefore (.sctn.2.1).
In the case of each product, 25 Sprague Dawley rats fasted the previous day were made diabetic by an intraperitoneal injection of streptozotocin (75 mg/kg). The rats were divided into 5 groups of 5, each orally given 0.3, […] or 10 mg/kg of CP 3182 AR or a control.
An identical experiment was performed with CP 3192 AR at the same doses. Treatment was given immediately after the streptozotocin, and 7 and 24 hours later. The animals were sacrificed 27 hours after induction. Estimates were made of the effects of the products on the proportion of plasma glucose and the sorbitol content of the crystalline lenses and sciatic nerves of rats.

[8] = test system: accumulation of sorbitol in the crystalline lenses; experiment: Curative effect of single dose: sorbitol in crystalline lenses; type: in vivo, Sprague Dawley rats; details: for Accumulation of sorbitol in crystalline lenses, treated: 10 mg/kg oral
Method: (§4) 2.3.2. Curative effect: CP 3192 AR was administered 24 hours after induction of diabetes.
(§5) As before, the experiment was made on 33 male Sprague Dawley rats weighing about 200 g. The 33 rats, which had been fasted the previous day, were made diabetic by an intraperitoneal injection of streptozotocin (75 mg/kg).
(§6) 24 hours after induction of diabetes, 3 rats were sacrificed and used as diabetic controls. A dose of 10 mg/kg of CP 3192 AR was orally administered to 15 rats whereas the other 15 were given the excipient without an active product. 3 control rats and 3 rats treated with CP 3192 AR were sacrificed 2, 4, 8, 24 and 48 hours after administration of the product.
(§7) Estimates were made of the effects of the product on the proportion of plasma glucose and the sorbitol content of the crystalline lenses and sciatic nerves of rats made diabetic by streptozotocin.

[9] = test system: accumulation of sorbitol in the sciatic nerves; experiment: Curative effect of single dose: sorbitol in sciatic nerves; type: in vivo, Sprague Dawley rats; details: for Accumulation of sorbitol in sciatic nerves, treated: 10 mg/kg oral
Method: as §4, §5, §6, §7

**Q.** With CC(=O)OCN1C(=O)N(COC(C)=O)C2(C1=O)c1ccccc1-c1ccccc12 [Compound 2, bis-(1',3'-acetoxymethyl)-spiro-/fluorene-9,4'-imidazolidine/-2',5'-dione] as the molecule, how does the LD50 at 336 h [1] read?
**A.** Its LD50 at 336 h is over 3000 mg/kg.

**Q.** What about the side effect observed ([2]; dose of 3000 mg/kg) of the same molecule?
**A.** Its side effect observed is “no side effect was observed”.

**Q.** What about the “MED (minimum dose at which a side effect is observed)” value ([2]; mice, oral) of the same molecule?
**A.** Its value is > 3 000 mg/kg.

**Q.** What about the “Inhibition of accumulation of sorbitol in vivo, crystalline lenses” value ([3]; oral 25 mg/kg at 0, 7 and 24 h, sacrificed 27 h) of the same molecule?
**A.** Its value is 86%.

**Q.** What about the “inhibition of accumulation of sorbitol in crystalline lenses and sciatic nerves (in words)” value ([3]; oral 25 mg/kg, lenses and sciatic nerves) of the same molecule?
**A.** The value was “particularly active”.

**Q.** What about the teratogenic effect [4] of the same molecule?
**A.** Its teratogenic effect is “does not have a mutagenic effect in the Ames test or teratogenic effect on mice”.

**Q.** And the “% inhibition of sorbitol accumulation, Crystalline lenses” value (“% inhibition … Crystalline lenses” for short) ([5]; 0.3 mg/kg oral at 0, 7, 24 h)?
**A.** The value was 3 ± 25%.

**Q.** What about the “% inhibition … Crystalline lenses” value ([5]; 1 mg/kg oral at 0, 7, 24 h) of the same molecule?
**A.** Its value is 13%.

**Q.** And the “% inhibition … Crystalline lenses” value ([5]; 3 mg/kg oral at 0, 7, 24 h)?
**A.** The value was 46%.

**Q.** And the “% inhibition … Crystalline lenses” value ([5]; 10 mg/kg oral at 0, 7, 24 h)?
**A.** Its value is 66%.

**Q.** And the ED50 ([5]; Rattus norvegicus, 27 h, crystalline lenses, diabetic rats, oral, read-out: ED50 (dose at which measured inhibition of aldose reductase activity is 50%))?
**A.** The ED50 was 3 mg/kg.

**Q.** What about the “therapeutic index MED/ED50, crystalline lenses” value ([5]; crystalline lenses) of the same molecule?
**A.** The value was “about 1 000”.

**Q.** And the “% inhibition of sorbitol accumulation, Sciatic nerves” value (“% inhibition … Sciatic nerves” for short) ([6]; 0.3 mg/kg oral at 0, 7, 24 h)?
**A.** The value was 42 ± 9%.

**Q.** What about the “% inhibition … Sciatic nerves” value ([6]; 1 mg/kg oral at 0, 7, 24 h) of the same molecule?
**A.** The value was 40 ± 17%.

**Q.** What about the “% inhibition … Sciatic nerves” value ([6]; 3 mg/kg oral at 0, 7, 24 h) of the same molecule?
**A.** The value was 68 ± 11%.

**Q.** And the “% inhibition … Sciatic nerves” value ([6]; 10 mg/kg oral at 0, 7, 24 h)?
**A.** Its value is 79 ± 9%.

**Q.** And the ED50 ([6]; Rattus norvegicus, 27 h, sciatic nerves, diabetic rats, oral, read-out: ED50 (dose at which measured inhibition of aldose reductase activity is 50%))?
**A.** The ED50 was 1 mg/kg.

**Q.** What about the “therapeutic index MED/ED50, sciatic nerves” value ([6]; sciatic nerves) of the same molecule?
**A.** The value was “above 3 000”.

**Q.** What about the Plasma glucose ([7]; 0.3 mg/kg oral) of the same molecule?
**A.** The Plasma glucose was 425 ± 82 mg/100 ml.

**Q.** And the Plasma glucose ([7]; 1 mg/kg oral)?
**A.** Its Plasma glucose is 444 ± 76 mg/100 ml.

**Q.** And the Plasma glucose ([7]; 3 mg/kg oral)?
**A.** The Plasma glucose was 446 ± 70 mg/100 ml.

**Q.** What about the Plasma glucose ([7]; 10 mg/kg oral) of the same molecule?
**A.** Its Plasma glucose is 472 ± 55 mg/100 ml.

**Q.** And the “Accumulation of sorbitol in crystalline lenses, treated” value ([8]; 2 h after administration)?
**A.** Its value is 103 ± 27 µg.

**Q.** What about the “Accumulation of sorbitol in crystalline lenses, treated” value ([8]; 4 h after administration) of the same molecule?
**A.** Its value is 99 ± 5 µg.

**Q.** What about the “Accumulation of sorbitol in crystalline lenses, treated” value ([8]; 8 h after administration) of the same molecule?
**A.** The value was 125 ± 8 µg.

**Q.** What about the “Accumulation of sorbitol in crystalline lenses, treated” value ([8]; 24 h after administration, p <0.0005) of the same molecule?
**A.** Its value is 73 ± 18 µg.

**Q.** What about the “Accumulation of sorbitol in crystalline lenses, treated” value ([8]; 48 h after administration, p < 0.05) of the same molecule?
**A.** Its value is 142 ± 47 µg.

**Q.** And the “accumulation of sorbitol in crystalline lenses (in words)” value ([8]; single dose 10 mg/kg)?
**A.** Its value is “completely inhibits”.

**Q.** What about the duration of effect ([8]; single dose 10 mg/kg, lenses and sciatic nerves) of the same molecule?
**A.** The duration of effect was at least 48 h.

**Q.** And the “Accumulation of sorbitol in sciatic nerves, treated” value ([9]; 2 h after administration)?
**A.** Its value is 4.8 ± 2.0 µg.

**Q.** What about the “Accumulation of sorbitol in sciatic nerves, treated” value ([9]; 4 h after administration, n = 1) of the same molecule?
**A.** The value was 4.0 µg.

**Q.** What about the “Accumulation of sorbitol in sciatic nerves, treated” value ([9]; 8 h after administration, n = 1) of the same molecule?
**A.** Its value is 2.2 µg.

**Q.** And the “Accumulation of sorbitol in sciatic nerves, treated” value ([9]; 24 h after administration)?
**A.** The value was 2.5 ± 0.4 µg.

**Q.** And the “Accumulation of sorbitol in sciatic nerves, treated” value ([9]; 48 h after administration)?
**A.** Its value is 5.9 ± 1.8 µg.

**Q.** What about the “proportion of sorbitol in sciatic nerves (in words)” value ([9]; single dose 10 mg/kg) of the same molecule?
**A.** The value was “greatly reduces”.
